Test results from patent US20230081539A1, “SUPRACHOROIDAL DELIVERY OF DRUG PARTICLES TO REDUCE TOXICITY” (The Johns Hopkins University, priority 2020, published 2023).

Tests used:
HIF-2 = HIF-2 (Homo sapiens, UniProt Q99814); conditions: in vitro; cited from earlier work
[1] = system: choroidal NV at Bruch's membrane rupture sites; test: Mouse CNV model, intravitreous injection of free ACF or PRF; format: in vivo, C57BL/6 mice; conditions: mice, 1 μl intravitreous injection of 50 ng immediately after rupture of Bruch's membrane, read after seven days
Experimental: Seven days after rupture of Bruch's membrane, mice were euthanized, eyecups were fixed and stained with FITC-labeled Griffonia Simplicifolia lectin (GSA, Vector Laboratories, Burlingame, Calif.), and flat mounted. The area of choroidal NV at each Bruch's membrane rupture site was measured by image analysis by an observer masked with respect to treatment group. The area of choroidal NV at the 3 rupture sites in one eye was averaged to give one experimental value for each animal. […] One week after rupture of Bruch's membrane, choroidal flat mounts were stained with FITC-Griffonia simplicifolia lectin.

HIF-1 = HIF-1 (Homo sapiens, UniProt Q16665); conditions: in vitro; cited from earlier work
HIF-1, sequence (Q16665 whole entry): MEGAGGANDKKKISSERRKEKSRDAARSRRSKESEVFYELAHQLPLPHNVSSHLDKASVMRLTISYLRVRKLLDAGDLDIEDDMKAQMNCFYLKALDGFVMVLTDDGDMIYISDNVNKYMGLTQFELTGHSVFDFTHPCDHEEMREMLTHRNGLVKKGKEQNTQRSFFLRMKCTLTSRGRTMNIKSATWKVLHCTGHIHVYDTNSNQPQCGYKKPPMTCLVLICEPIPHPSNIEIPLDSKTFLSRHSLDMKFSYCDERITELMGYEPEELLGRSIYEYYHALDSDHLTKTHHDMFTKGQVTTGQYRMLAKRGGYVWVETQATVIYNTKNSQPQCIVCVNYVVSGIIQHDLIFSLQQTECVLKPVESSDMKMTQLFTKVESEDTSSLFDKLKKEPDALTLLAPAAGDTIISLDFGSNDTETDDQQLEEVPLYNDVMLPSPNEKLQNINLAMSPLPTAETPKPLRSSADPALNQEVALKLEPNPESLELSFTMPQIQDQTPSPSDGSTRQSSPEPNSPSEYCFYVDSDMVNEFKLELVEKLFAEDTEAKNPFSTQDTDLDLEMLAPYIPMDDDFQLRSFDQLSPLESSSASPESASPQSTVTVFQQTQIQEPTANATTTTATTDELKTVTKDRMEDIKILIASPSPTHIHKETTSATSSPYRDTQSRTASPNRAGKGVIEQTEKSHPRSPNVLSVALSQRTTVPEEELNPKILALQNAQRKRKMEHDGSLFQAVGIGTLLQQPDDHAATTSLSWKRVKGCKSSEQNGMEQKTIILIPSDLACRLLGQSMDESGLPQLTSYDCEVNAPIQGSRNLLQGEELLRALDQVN

[2] = Pharmacokinetics in rats: TRF and PRF in ocular tissues by LC-MS/MS after suprachoroidal PLGA-ACF MPs
Experimental: The injection site was marked in each eye. Six rats were euthanized at each of the following time points after injection: 1 and 2 weeks, and 1, 2, 3, and 4 months. After removal of the anterior segment and lens of each eye, the retina and RPE/choroid/sclera were dissected and cut in half along the horizontal meridian through the optic nerve head and frozen separately. Samples were analyzed for acriflavine and proflavine by liquid chromatography with tandem mass spectrometry (LC-MS/MS). Tissue samples were homogenized in 200 μl of methanol and homogenized with Next Advance Bullet Blender. The analytes were extracted from 25 μl of homogenized tissue with 250 μl of acetonitrile containing internal standard (5 ng/ml of acridine orange). Samples were centrifuged and the top layer was transferred to an auto sampler vial for LC/MS/MS analysis.
Mobile phase A was water containing 0.1% formic acid and mobile phase B was acetonitrile containing 0.1% formic acid. The gradient started with mobile phase B held at 50% for 1 minute and increased to 100% over 0.5 minutes; 100% mobile phase B was held for 1.5 minutes and then returned back to 50% mobile phase B and allowed to equilibrate for 1 minute. […] The column effluent was monitored using a Sciex 4500 triple quadrupole mass spectrometer with electrospray ionization operating in positive mode. […]

HIF-2, sequence (Q99814 whole entry): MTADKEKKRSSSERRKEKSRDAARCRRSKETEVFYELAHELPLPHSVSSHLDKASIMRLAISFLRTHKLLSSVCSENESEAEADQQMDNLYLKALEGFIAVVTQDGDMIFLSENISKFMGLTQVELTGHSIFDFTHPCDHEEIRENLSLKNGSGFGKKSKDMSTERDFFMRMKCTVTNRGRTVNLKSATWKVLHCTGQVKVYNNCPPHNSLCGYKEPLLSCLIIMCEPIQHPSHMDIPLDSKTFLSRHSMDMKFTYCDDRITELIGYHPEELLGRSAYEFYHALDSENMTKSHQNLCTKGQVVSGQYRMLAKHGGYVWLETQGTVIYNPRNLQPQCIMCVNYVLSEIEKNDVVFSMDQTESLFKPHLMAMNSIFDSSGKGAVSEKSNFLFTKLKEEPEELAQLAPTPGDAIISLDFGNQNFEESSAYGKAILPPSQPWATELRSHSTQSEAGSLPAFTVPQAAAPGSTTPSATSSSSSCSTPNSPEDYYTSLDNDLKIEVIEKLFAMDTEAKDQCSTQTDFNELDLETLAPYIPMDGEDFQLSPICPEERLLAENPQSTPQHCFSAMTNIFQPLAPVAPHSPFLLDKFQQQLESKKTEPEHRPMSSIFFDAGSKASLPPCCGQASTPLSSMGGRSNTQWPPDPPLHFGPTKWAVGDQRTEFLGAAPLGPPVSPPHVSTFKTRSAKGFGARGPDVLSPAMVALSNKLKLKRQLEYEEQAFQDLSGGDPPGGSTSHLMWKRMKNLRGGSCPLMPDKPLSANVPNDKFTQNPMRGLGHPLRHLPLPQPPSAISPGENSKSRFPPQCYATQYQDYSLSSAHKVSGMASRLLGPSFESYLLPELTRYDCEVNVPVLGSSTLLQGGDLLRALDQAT

Molecule	concentration that inhibits the transcriptional activity of HIF-2 (HIF-2)	area of CNV at Bruch's membrane rupture sites compared with PBS [1]	concentration that inhibits the transcriptional activity of HIF-1 (HIF-1)	further results
3,6-diamino-10-methylacridinium chloride mixed with 3,6-acridinediamine [ACF]	nanomolar	statistically significant reduction	nanomolar	–
Nc1ccc2cc3ccc(N)cc3nc2c1 [PRF, proflavine]	–	almost identical to that of eyes treated with PBS	–	–
C[n+]1c2cc(N)ccc2cc2ccc(N)cc21.[Cl-] [TRF, trypaflavine]	–	–	–	duration of steady-state levels in the low nM range in RPE/choroid and retina ([2]; suprachoroidal PLGA-ACF MPs): at least 16 weeks; steady-state level in inferior retina ([2]; suprachoroidal PLGA-ACF MPs containing 10 μg ACF, 2 through 16 weeks): ~0.1 nM
C[C@H]1O[C@@H](O[C@H]2[C@@H](O)C[C@H](O[C@H]3[C@@H](O)C[C@H](O[C@H]4CC[C@@]5(C)[C@H](CC[C@@H]6[C@@H]5C[C@@H](O)[C@]5(C)[C@@H](C7=CC(=O)OC7)CC[C@]65O)C4)O[C@@H]3C)O[C@@H]2C)C[C@H](O)[C@@H]1O [digoxin]	nanomolar	–	–	–
C[C@@H]1O[C@@H](O[C@H]2C[C@@H](O)[C@]3(CO)[C@H]4[C@H](O)C[C@]5(C)[C@@H](C6=CC(=O)OC6)CC[C@]5(O)[C@@H]4CC[C@]3(O)C2)[C@H](O)[C@H](O)[C@H]1O [ouabain]	nanomolar	–	–	–
C[C@@H]1O[C@@H](O[C@@H]2C=C3CC[C@@H]4[C@H](CC[C@]5(C)[C@@H](c6ccc(=O)oc6)CC[C@]45O)[C@@]3(C)CC2)[C@H](O)[C@H](O)[C@H]1O [proscillaridin A]	nanomolar	–	nanomolar	–
